From patent publication EP4755892A1, “KINESIN KIF18A INHIBITOR AND USE THEREOF” (Shanghai Apeiron Therapeutics Company Limited, priority 2023, dated 2025)
Read-outs that look alike come from different tables or passages of the source.

Assays:
[1] = target: T1, Human KIF18A (amino acid sequence 1-417) (Homo sapiens, UniProt Q8NI77); test: Enzymatic Activity Test (ADP-Glo, microtubule-stimulated KIF18A ATPase); assay type: biochemical; conditions: 60 µg/mL microtubules, 25 µM ATP, 2.5 nM KIF18A protein, 120 min at ambient temperature, chemiluminescence; read-out: KIF 18A IC50
T1 construct: purchased Viva Biotech (Shanghai) Ltd
T1 sequence (Q8NI77 1-417): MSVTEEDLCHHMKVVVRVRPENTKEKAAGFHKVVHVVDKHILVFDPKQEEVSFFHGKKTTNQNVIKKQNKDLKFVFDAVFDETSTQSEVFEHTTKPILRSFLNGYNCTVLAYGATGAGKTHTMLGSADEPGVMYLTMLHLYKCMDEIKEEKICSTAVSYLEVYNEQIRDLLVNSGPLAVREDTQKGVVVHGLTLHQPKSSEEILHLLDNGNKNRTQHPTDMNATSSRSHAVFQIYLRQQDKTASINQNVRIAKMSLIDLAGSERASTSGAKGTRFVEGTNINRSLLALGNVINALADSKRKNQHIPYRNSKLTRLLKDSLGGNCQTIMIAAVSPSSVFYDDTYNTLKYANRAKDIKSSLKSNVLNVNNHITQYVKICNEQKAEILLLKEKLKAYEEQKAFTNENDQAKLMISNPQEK
Protocol: Assay 1: Enzymatic Activity Test
Materials: Human KIF18A (amino acid sequence 1-417) was purchased from Viva Biotech (Shanghai) Ltd.; the ADP-Glo™ protein kinase kit was acquired from Promega, USA; tubulin was sourced from Cytoskeleton, USA; and the 384-well assay plate and Envision multifunctional microplate reader were obtained from PerkinElmer, USA.
Enzymatic Activity Test: The compound powder was dissolved in DMSO to prepare a stock solution of 10 mM. Then gradient dilution was performed for the compounds in the microplate to achieve a final concentration of 0-10 µM. Then, 2.5 µL each of tubulin, compound, ATP, and KIF18A protein were added to the microplate in sequence for reaction at ambient temperature for 120 min. The final concentrations in the enzyme reaction were 60 µg/mL for microtubules, 25 µM for ATP, and 2.5 nM for KIF18A protein. After the enzyme reaction, 10 µL of ADP-GLO reaction reagent was added to each well and incubated at room temperature for 30 min. After that, 20 µL of detection reagent was added to each well and incubated at room temperature for 30 min in the dark. Finally, chemiluminescence detection was performed using the PerkinElmer Envision.

OVCAR3 cells = test: Cell Proliferation Activity Test (CyQUANT Direct), OVCAR3; assay type: cell-based; conditions: compound 0-10 µM, 3 days, 0.2% DMSO, CyQUANT fluorescence, read-out: OVCAR-3 _IC50_nM
Protocol: Assay 2: Cell Proliferation Activity Test
Materials and Cells: OVCAR3 cells were purchased from Nanjing Cobioer Biosciences Co., Ltd. RPMI-1640 medium, fetal bovine serum, and the CyQUANT Direct Cell Proliferation Assay kit were purchased from Thermo Fisher Scientific, USA; 96-well cell culture plates were sourced from Coming, USA.
Cell Culture: OVCAR3 cells were cultured with RPMI-1640 medium containing 10% fetal bovine serum and incubated in a 5% CO2 incubator at 37°C. Only cells in the logarithmic growth phase could be used for the test.
Cell Proliferation Activity Test:
OVCAR3 cells were inoculated into a 96-well cell culture plate at 90 µL per well and incubated overnight in a 5% CO2 incubator at 37°C. The compound powder was dissolved in DMSO to prepare a stock solution of 10 mM. Then gradient dilution was performed for the compounds in the microplate to achieve a final concentration of 0-10 µM. 10 µL of cell culture medium containing compounds was added to each well to make the final DMSO content 0.2%. The cell plates were incubated in a 5% CO2 incubator at 37°C for 3 days. 100 µL of CyQUANT detection reagent was added to each well, reacted at 37°C for 60 min, and fluorescence detection was performed using the PerkinElmer Envision.

HT29 cells = test: CyQuant Cell Proliferation Activity Test, HT29; assay type: cell-based; conditions: HT29 cells 2000 per well, initial concentration 3000 nM, 3-fold dilution, 3 days, 0.2% DMSO, read-out: HT29_IC50 _nM
Protocol: Assay 3: CyQuant Cell Proliferation Activity Test
Materials and Cells: HT29 cells were purchased from Nanjing Cobioer Biosciences Co., Ltd.; RPMI-1640 medium, fetal bovine serum, Trypsin-EDTA (0.25%), 96-well plates, and CyQuant reagents were purchased from ThermoFisher (USA); DMSO was purchased from SIGMA (USA).
Cell Culture: HT29 cells were cultured with RPMI-1640 containing 10% fetal bovine serum under the condition of 37°C and 5% CO2. Only cells in the logarithmic growth phase could be used for the test.
Cell Proliferation Activity Test: CyQuant reagent was used to detect the proliferation inhibitory activity of compounds on HT29 cells. The cell density was adjusted, and 100 µL per well was inoculated into a 96-well plate (HT29 at 2000 cells per well), then incubated overnight at 37°C and 5% CO2. Add compounds of various target concentrations (initial concentration of 3000 nM, 3-fold dilution, 9 concentration gradients), and make the DMSO content 0.2%. The cell plate was incubated at 37°C in 5% CO2 for 3 days. CyQuant reagent was added and incubated for 1 h. The plates were read by Envision, and IC50 was calculated using XLFIT.

Row | SMILES | IC50 [1] | IC50 (OVCAR3 cells) | IC50 (HT29 cells) | IC50 (OVCAR3 cells; Homo sapiens, OVCAR-3, 72 h) | IC50 (HT29 cells; Homo sapiens, HT-29, 72 h)
1 | Cc1cc2nc(n1)N1CCCC(COCC3CCN(CC3)c3cc(NS(=O)(=O)CCO)ccc3C(=O)N2)C1 (stereo not drawn) [Example 28, 2-Hydroxy-N-(2^6-methyl-4-oxo-8-oxa-3-aza-2(2,4)-pyrimidin-1(1,3),6(1,4)-dipiperidin-5(1,2)-benzeneheterocyclononane-5^4-yl)ethane-1-sulfonamide] | 229 nM |  |  | 506 nM | 639 nM
2 | Cc1cc2nc(n1)N1CCC(F)(F)C(=CCCC3CCN(CC3)c3cc(NS(=O)(=O)CCO)ccc3C(=O)N2)C1 [Example 21, N-(1^4,1^4-difluoro-2^6-methyl-4-oxo-3-aza-2(2,4)-pyrimidin-1(1,3),6(1,4)-dipiperidin-5(1,2)-benzeneheterocyclonon-9-en-5^4-yl)-2-hydroxyethane-1-sulfonamide] | 305 nM |  |  | 744 nM | 703 nM
3 | COc1cc2nc(n1)N1CCC(F)(F)C(C=CCC3CCN(CC3)c3cc(NS(=O)(=O)CCO)ccc3C(=O)N2)C1 (stereo not drawn) [Example 24, (Z)-N-(1^4,1^4-difluoro-2^6-methoxy-4-oxo-3-aza-2(2,4)-pyrimidin-1(1,3),6(1,4)-dipiperidin-5(1,2)-benzeneheterocyclonon-8-en-5^4-yl)-2-hydroxyethane-1-sulfonamide] | 158 nM |  |  | 46 nM | 63 nM
4 | Cc1cc2nc(n1)N1CCCC(C=CCC3CCN(CC3)c3cc(NS(=O)(=O)CCO)ccc3C(=O)N2)C1 (stereo not drawn) [Example 1B, 2-Hydroxy-N-((1^3R,E)-2^6-methyl-4-oxo-3-aza-2(2,4)-pyrimidin-1(1,3),6(1,4)-dipiperidin-5(1,2)-benzoaza-8-en-5^4-yl)ethane-1-sulfonamide] | 34 nM | 6 nM | 7 nM |  | 
5 | Cc1cc2nc(n1)N1CCC(F)(F)C(C=CCC3CCN(CC3)c3cc(NS(=O)(=O)CCO)ccc3C(=O)N2)C1 (stereo not drawn) [Example 18, N-(1^4,1^4-difluoro-2^6-methyl-4-oxo-3-aza-2(2,4)-pyrimidin-1(1,3),6(1,4)-dipiperidin-5(1,2)-benzeneheterocyclonon-8-en-5^4-yl)-2-hydroxyethane-1-sulfonamide] | 94 nM | 31 nM | 34 nM |  | 
6 | Cc1cc2nc(n1)N1CCCC(C=CCC3CCN(CC3)c3cc(NS(=O)(=O)CCO)ccc3C(=O)N2)C1 (stereo not drawn) [Example 1A, 2-Hydroxy-N-((1^3S,E)-2^6-methyl-4-oxo-3-aza-2(2,4)-pyrimidin-1(1,3),6(1,4)-dipiperidin-5(1,2)-benzoaza-8-en-5^4-yl)ethane-1-sulfonamide] | > 3000 nM | > 3000 nM | > 3000 nM |  | 
7 | Cc1cc2nc(n1)N1CCCC(C=CCC3CCN(CC3)c3cc(NS(=O)(=O)CCO)ccc3C(=O)N2)C1 (stereo not drawn) [Example 1C, 2-Hydroxy-N-((1^3S,Z)-2^6-methyl-4-oxo-3-aza-2(2,4)-pyrimidin-1(1,3),6(1,4)-dipiperidin-5(1,2)-benzoaza-8-en-5^4-yl)ethane-1-sulfonamide] | 36 nM | 61 nM | 78 nM |  | 
8 | Cc1cc2nc(n1)N1CCCC(C=CCC3CCN(CC3)c3cc(NS(=O)(=O)CCO)ccc3C(=O)N2)C1 (stereo not drawn) [Example 1D, 2-Hydroxy-N-((1^3R,Z)-2^6-methyl-4-oxo-3-aza-2(2,4)-pyrimidin-1(1,3),6(1,4)-dipiperidin-5(1,2)-benzoaza-8-en-5^4-yl)ethane-1-sulfonamide] | 246 nM | 506 nM | 746 nM |  | 
9 | O=C1Nc2cccc(c2)S(=O)(=O)N2CCN(CCC3CCN(CC3)c3cc(NS(=O)(=O)CCO)ccc31)CC2 [Example 17, N-(6,6-dioxo-9-oxo-6-thia-8-aza-5(1,4)-piperazin-2(1,4)-piperidin-1(1,2),7(1,3)-diphenylheterocyclononane-1^3-yl)-2-hydroxyethane-1-sulfonamide] | 605 nM |  |  | > 3000 nM | > 3000 nM
10 | Cc1cc2nc(n1)N1CCCC(C=CCC3CCN(CC3)c3cc(NS(=O)(=O)CCO)ccc3C(=O)N2)C1 (stereo not drawn) [Example 1, 2-Hydroxy-N-(2^6-methyl-4-oxo-3-aza-2(2,4)-pyrimidin-1(1,3),6(1,4)-dipiperidin-5 (1,2)-benzeneheterocyclonon-8-en-5^4-yl)ethane-1-sulfonamide] | 62 nM | 14 nM | 17 nM |  | 
11 | Cc1cc2nc(n1)N1CCCC(CCCCC3CCN(CC3)c3cc(NS(=O)(=O)CCO)ccc3C(=O)N2)C1 (stereo not drawn) [Example 7, 2-Hydroxy-N-(2^6-methyl-4-oxo-3-aza-2(2,4)-pyrimidin-1(1,3),6(1,4)-dipiperidin-5 (1,2)-benzenecyclodecane-5^4-yl)ethane-1-sulfonamide] | 197 nM |  |  | 242 nM | 255 nM

Now from value to molecule:

Row | IC50 [1] | IC50 (OVCAR3 cells) | IC50 (HT29 cells) | IC50 (OVCAR3 cells; Homo sapiens, OVCAR-3, 72 h) | IC50 (HT29 cells; Homo sapiens, HT-29, 72 h) | SMILES
12 | 345 nM | 458 nM | 660 nM |  |  | Cc1cc2nc(n1)N1CCC(F)(F)C(C=CCC3CCN(CC3)c3cc(NS(=O)(=O)CCO)ccc3C(=O)N2)C1 (stereo not drawn) [Example 18D, N-((1^3R,Z)-1^4,1^4-difluoro-2^6-methyl-4-oxo-3-aza-2(2,4)-pyrimidin-1(1,3),6(1,4)-dipiperidin-5(1,2)-benzeneheterocyclononane-8-en-5^4-yl)-2-hydroxyethane-1-sulfon amide]
13 | 41 nM | 29 nM | 31 nM |  |  | Cc1cc2nc(n1)N1CCC(F)(F)C(C=CCC3CCN(CC3)c3cc(NS(=O)(=O)CCO)ccc3C(=O)N2)C1 (stereo not drawn) [Example 18C, N-((1^3S,Z)-1^4,1^4-difluoro-2^6-methyl-4-oxo-3-aza-2(2,4)-pyrimidin-1(1,3),6(1,4)-dipiperidin-5(1,2)-benzeneheterocyclononane-8-en-5^4-yl)-2-hydroxyethane-1-sulfonamide]
14 | 522 nM | 662 nM | 688 nM |  |  | Cc1cc2nc(n1)N1CCC(F)(F)C(CCCC3CCN(CC3)c3cc(NS(=O)(=O)CCO)ccc3C(=O)N2)C1 (stereo not drawn) [Example 23A, N-((1^3S)-1^4,1^4-difluoro-2^6-methyl-4-oxo-3-aza-2(2,4)-pyrimidin-1(1,3),6(1,4)-dipiperidin-5(1,2)-benzeneheterocyclononane-5^4-yl)-2-hydroxyethane-1-sulfonamide]
15 | > 3000 nM | > 3000 nM | > 3000 nM |  |  | Cc1cc2nc(n1)N1CCC(F)(F)C(C=CCC3CCN(CC3)c3cc(NS(=O)(=O)CCO)ccc3C(=O)N2)C1 (stereo not drawn) [Example 18A, N-((1^3S,E)-1^4,1^4-difluoro-2^1-methyl-4-oxo-3-aza-2(2,4)-pyrimidin-1(1,3),6(1,4)-dipiperidin-5(1,2)-benzeneheterocyclononane-8-en-5^4-yl)-2-hydroxyethane-1-sulfonamide]
